The results in this text go back to patent US6359130B1, “Bridged indenopyrrolocarbazoles” (Cephalon, Inc., priority 1998, dated 2002).

Structures are written as SMILES.

The target of the first assay is T1, baculovirus-expressed human trkA cytoplasmic domain (Homo sapiens, UniProt P04629).
T1 construct: baculovirus-expressed human trka cytoplasmic domain; made in house; host or cells: baculovirus expression system
T1 sequence (P04629 440-796 limits assumed): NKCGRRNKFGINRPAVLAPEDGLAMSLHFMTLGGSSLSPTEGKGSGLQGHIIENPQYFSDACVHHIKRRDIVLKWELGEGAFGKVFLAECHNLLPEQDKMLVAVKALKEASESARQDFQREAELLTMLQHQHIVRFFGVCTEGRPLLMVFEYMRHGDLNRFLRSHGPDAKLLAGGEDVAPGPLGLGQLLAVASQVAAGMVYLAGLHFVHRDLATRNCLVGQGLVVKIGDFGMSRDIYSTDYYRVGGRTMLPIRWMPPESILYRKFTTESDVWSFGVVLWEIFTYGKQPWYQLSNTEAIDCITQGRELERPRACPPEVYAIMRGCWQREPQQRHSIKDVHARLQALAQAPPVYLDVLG
Nature of the assay: Inhibition of trkA tyrosine kinase activity (ELISA-based assay). Type of assay: biochemical. The settings on record: 40 μM ATP. How it is done: Selected bridged indenopyrrolocarbazole compounds were tested for their ability to inhibit the kinase activity of baculovirus-expressed human trka cytoplasmic domain using an ELISA-based assay as previously described (Angeles et al., Anal. Biochem. 236: 49-55, 1996). Briefly, the 96-well microtiter plate was coated with substrate solution (recombinant human phospholipase C-γl/glutathione S-transferase fusion protein (Rotin et al., EMBO J., 11: 559-567, 1992). Inhibition studies were performed in 100 μl assay mixtures containing 50 mM Hepes, pH 7.4, 40 μM ATP, 10 mM MnCl2, 0.1% BSA, 2% DMSO, and various concentrations of inhibitor. The reaction was initiated by addition of trkA kinase and allowed to proceed for 15 minutes at 37° C. An antibody to phosphotyrosine (UBI) was then added, followed by a secondary enzyme-conjugated antibody, alkaline phosphatase-labelled goat anti-mouse IgG (Bio-Rad). The activity of the bound enzyme was measured via an amplified detection system (Gibco-BRL). Inhibition data were analyzed using the sigmoidal dose-response (variable slope) equation in GraphPad Prism.
For `O=C1NCc2c3c4c5c(c21)c1ccccc1n5C1CCC(O1)C4c1ccccc1-3` (stereo not drawn) [II-8], the IC50 stood at 254 nM.

As to `CC12CCC(O1)n1c3ccccc3c3c4c(c5c(c31)C2c1ccccc1-5)C(=O)NC4` (stereo not drawn) [II-3], the IC50 is 9 nM.

In turn, `CC12COCC(O1)n1c3ccccc3c3c4c(c5c(c31)C2c1ccccc1-5)C(=O)NC4` (stereo not drawn) [II-7b] came in with an IC50 of 5 nM.

Regarding `CC12CCCC(O1)n1c3ccccc3c3c4c(c5c(c31)C2c1ccccc1-5)C(=O)NC4` (single isomer, unassigned) [II-4b], the IC50 was determined as 16 nM.

The compound `CC12CCC(O1)n1c3ccc(Br)cc3c3c4c(c5c(c31)C2c1ccccc1-5)C(=O)NC4` (stereo not drawn) [II-5] displayed an IC50 of 72 nM.

Another assay deals with T2, trkA in NIH3T3 cells transfected with trkA (Homo sapiens, UniProt P04629).
T2 construct: expressed in transfected cells; host or cells: NIH3T3 cells
T2 sequence (P04629 33-796): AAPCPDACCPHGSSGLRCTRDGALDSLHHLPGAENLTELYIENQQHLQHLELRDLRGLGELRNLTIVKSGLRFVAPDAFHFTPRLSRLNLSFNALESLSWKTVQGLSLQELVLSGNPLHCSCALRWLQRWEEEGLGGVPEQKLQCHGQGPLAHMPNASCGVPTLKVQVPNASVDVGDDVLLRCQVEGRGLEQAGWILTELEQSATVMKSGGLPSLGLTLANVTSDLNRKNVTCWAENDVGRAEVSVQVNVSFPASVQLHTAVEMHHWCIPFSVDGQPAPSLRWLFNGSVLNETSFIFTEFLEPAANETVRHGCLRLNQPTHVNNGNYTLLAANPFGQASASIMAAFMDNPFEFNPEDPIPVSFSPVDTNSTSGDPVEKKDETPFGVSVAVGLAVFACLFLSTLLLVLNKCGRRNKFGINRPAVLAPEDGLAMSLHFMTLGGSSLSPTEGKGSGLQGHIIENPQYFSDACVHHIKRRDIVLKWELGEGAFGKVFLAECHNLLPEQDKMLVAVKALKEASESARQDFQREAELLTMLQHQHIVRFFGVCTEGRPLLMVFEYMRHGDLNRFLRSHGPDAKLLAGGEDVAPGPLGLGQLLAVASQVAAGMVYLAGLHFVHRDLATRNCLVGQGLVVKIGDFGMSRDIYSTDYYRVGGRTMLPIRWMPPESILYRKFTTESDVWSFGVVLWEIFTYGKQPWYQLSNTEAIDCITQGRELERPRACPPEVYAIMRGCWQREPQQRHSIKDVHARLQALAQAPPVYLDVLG
Nature of the assay: Inhibition of NGF-stimulated trk phosphorylation in a whole cell preparation. The format is cell-based. Further details: key to Inhibition Score at 100 nM: 0=no decrease; 1=1-25%; 2=26-49%; 3=50-75%; 4=76-100%. Particulars: 100 nM compound, NGF 10 ng/ml, percent decrease in trk protein band. How it is done:
NIH3T3 cells transfected with trkA were grown in 100 mm dishes. Subconfluent cells were serum-starved by replacing media with serum-free 0.05% BSA-DMEM containing compound (100 nM and 1 μM) or DMSO (added to controls) for one hour at 37° C. NGF (Harlan/Bioproducts for Science) was then added to the cells at a concentration of 10 ng/ml for 5 minutes. Cells were lysed in buffer containing detergent and protease inhibitors. Clarified cell lysates were normalized to protein using BCA method and immunoprecipitated with anti-trk antibody. Polyclonal anti-trk antibody was prepared against a peptide corresponding to the 14 amino acids at the carboxy terminus of trk (Martin-Zanca et al., Mol. Cell. Biol. 9: 24-33, 1989). The immune complexes were collected on Protein A Sepharose beads (Sigma Chem. Co., St. Lois, Mo.), separated by SDS polyacrylamide gel electrophoresis (SDS-PAGE), and transferred to a polyvinylidene difluoride (PVDF) membrane. The membrane was immunoblotted with anti-phosphotyrosine antibody (UBI), followed by incubation with horseradish peroxidase coupled goat anti-mouse IgG (Bio-Rad Laboratories, Hercules, Calif.). Phosphorylated proteins were visualized using ECL (Amersham Lite Science, Inc., Arlington Heights, Ill.). The area of the trk protein band was measured and compared to NGF-stimulated control. The inhibition scoring system used, based on percent decrease in trk protein band, was as follows: 0=no decrease; 1=1-25%; 2=26-49%; 3=50-75%; 4=76-100% Results are shown below in Table 3.
`CC12CCC(O1)n1c3ccccc3c3c4c(c5c(c31)C2c1ccccc1-5)C(=O)NC4` (stereo not drawn) [II-3]: the “Inhibition Score at 100 nM” value is on record as 1 (1=1-25%).

With `CC12COCC(O1)n1c3ccccc3c3c4c(c5c(c31)C2c1ccccc1-5)C(=O)NC4` (stereo not drawn) [II-7b], the “Inhibition Score at 100 nM” value is on record as 3 (3=50-75%).

As for `CC12CCCC(O1)n1c3ccccc3c3c4c(c5c(c31)C2c1ccccc1-5)C(=O)NC4` (single isomer, unassigned) [II-4b], the “Inhibition Score at 100 nM” value was 0.

The assay is the same for the next values; noted with them: 1000 nM compound, NGF 10 ng/ml, percent decrease in trk protein band.
Turning to `CC12CCC(O1)n1c3ccccc3c3c4c(c5c(c31)C2c1ccccc1-5)C(=O)NC4` (stereo not drawn) [II-3], the “Inhibition Score at 1000 nM” value is given as 4 (4=76-100%).

For the compound `CC12COCC(O1)n1c3ccccc3c3c4c(c5c(c31)C2c1ccccc1-5)C(=O)NC4` (stereo not drawn) [II-7b], the “Inhibition Score at 1000 nM” value was 4 (4=76-100%).

Consider `CC12CCCC(O1)n1c3ccccc3c3c4c(c5c(c31)C2c1ccccc1-5)C(=O)NC4` (single isomer, unassigned) [II-4b], for which the “Inhibition Score at 1000 nM” value is listed as 2 (2=26-49%).

The target of a further assay is T3, VEGF receptor (human flk-1, KDR, VEGFR2) kinase domain (Homo sapiens, UniProt P35968).
T3 construct: VEGF receptor (human flk-1, KDR, VEGFR2) kinase domain; made in house; host or cells: baculovirus expression system
T3 sequence (P35968 834-1162 limits assumed): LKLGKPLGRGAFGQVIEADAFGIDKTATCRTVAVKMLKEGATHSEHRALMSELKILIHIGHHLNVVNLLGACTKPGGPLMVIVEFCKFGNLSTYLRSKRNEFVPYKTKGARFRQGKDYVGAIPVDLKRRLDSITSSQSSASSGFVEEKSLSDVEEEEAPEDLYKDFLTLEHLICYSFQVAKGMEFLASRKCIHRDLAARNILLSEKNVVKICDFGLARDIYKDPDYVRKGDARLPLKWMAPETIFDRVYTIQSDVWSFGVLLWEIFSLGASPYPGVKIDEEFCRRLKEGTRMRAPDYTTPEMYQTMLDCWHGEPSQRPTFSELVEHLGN
Nature of the assay: Inhibition of VEGF receptor kinase activity (ELISA). Particulars: 40 μM ATP; read-out: VEGFR kinase IC50. Type of assay: biochemical. How it is done:
Bridged indenopyrrolocarbazole compounds were examined for their inhibitory effects on the kinase activity of baculovirus-expressed VEGF receptor (human flk-1, KDR, VEGFR2) kinase domain using the procedure described for the trkA kinase ELISA assay described above. The kinase reaction mixture, consisting of 50 mM Hepes, pH 7.4, 40 μM ATP, 10 mM MnCl2, 0.1% BSA, 2% DMSO, and various concentrations of inhibitor, was transferred to PLC-γ/GST-coated plates. VEGFR kinase was added and the reaction was allowed to proceed for 15 min. at 37° C. Detection of phosphorylated product was accomplished by addition of anti-phosphotyrosine antibody (UBI). A secondary enzyme-conjugated antibody was delivered to capture the antibody-phosphorylated PLC-γ/GST complex. The activity of the bound enzyme was measured via an amplified detection system (Gibco-BRL). Inhibition data were analyzed using the sigmoidal dose-response (variable slope) equation in GraphPad Prism.
(In general: ELISA stands for enzyme-linked immunosorbent assay.)
As for `O=C1NCc2c3c4c5c(c21)c1ccccc1n5C1CCC(O1)C4c1ccccc1-3` (stereo not drawn) [II-8], the IC50 was 26 nM.

In the case of `CC12CCC(O1)n1c3ccccc3c3c4c(c5c(c31)C2c1ccccc1-5)C(=O)NC4` (stereo not drawn) [II-3], the IC50 was determined as 71 nM.

With `O=C1NCc2c1c1c3c4c2c2ccccc2n4C2CCC(O2)C3c2ccccc2-1` (single isomer, unassigned) [II-1b], the 50% inhibitory concentration (IC50) stood at 67 nM.

`CC12COCC(O1)n1c3ccccc3c3c4c(c5c(c31)C2c1ccccc1-5)C(=O)NC4` (stereo not drawn) [II-7b]: the IC50 was found to be 260 nM.

`COc1ccc2c(c1)-c1c3c(c4c5ccccc5n5c4c1C2C1CCC5O1)CNC3=O` (stereo not drawn) [II-13]: the IC50 turned out to be 8 nM.

In the case of `CC12CCCC(O1)n1c3ccccc3c3c4c(c5c(c31)C2c1ccccc1-5)C(=O)NC4` (single isomer, unassigned) [II-4b], the IC50 was 184 nM.

Consider `CC12CCC(O1)n1c3ccc(Br)cc3c3c4c(c5c(c31)C2c1ccccc1-5)C(=O)NC4` (stereo not drawn) [II-5], for which the IC50 turned out to be 398 nM.

Another assay concerns protein kinase C (mixed isozymes of a, b, g). As to the kind of experiment: Inhibition of protein kinase C activity (Millipore Multiscreen TCA in-plate assay). Type of assay: biochemical. The settings on record: 1 uM; values in parentheses. On the procedure:
Protein kinase C activity was assessed using the Millipore Multiscreen TCA “in-plate” assay as described in Pitt, A. M. and Lee, C. (J. Biomol. Screening, 1: 47-51, 1996). Assays were performed in 96-well Multiscreen-DP plates (Millipore). Each […] assay mixture contained 20 mM Hepes, pH 7.4, 10 mM MgCl2, 2.5 mM EGTA, 2.5 mM CaCl2, 80 mg/ml phosphatidyl serine, 3.2 mg/ml diolein, 200 mg/ml histone H-1(Fluka), 5 mM [γ-^32P]ATP, 1.5 ng protein kinase C (UBI; mixed isozymes of a, b, g), 0.1% BSA, 2% DMSO, and test bridged fused pyrrolocarbazole compound. The reaction was allowed to proceed for 10 min at 37° C., then quenched by adding ice cold 50% trichloroacetic acid. The plates were allowed to equilibrate for 30 min at 4° C., then washed with ice cold 25% TCA. Scintillation cocktail was added to the plates, and the radioactivity was determined using Wallac MicroBeta 1450 PLUS scintillation counter. The IC50 values were calculated by fitting the data to the sigmoidal dose-response (variable slope) equation in GraphPad Prism.
As for `CC12CCC(O1)n1c3ccccc3c3c4c(c5c(c31)C2c1ccccc1-5)C(=O)NC4` (stereo not drawn) [II-3], the “PKC % Inh. @ 1 uM” value is “(23) %”.

In the case of `CC12CCCC(O1)n1c3ccccc3c3c4c(c5c(c31)C2c1ccccc1-5)C(=O)NC4` (single isomer, unassigned) [II-4b], the “PKC % Inh. @ 1 uM” value is reported as “(28) %”.

Turning to `CC12CCC(O1)n1c3ccc(Br)cc3c3c4c(c5c(c31)C2c1ccccc1-5)C(=O)NC4` (stereo not drawn) [II-5], the “PKC % Inh. @ 1 uM” value is “(37) %”.

Still in this assay, the particulars now being: read-out: PKC IC50.
With `O=C1NCc2c3c4c5c(c21)c1ccccc1n5C1CCC(O1)C4c1ccccc1-3` (stereo not drawn) [II-8], the IC50 turned out to be 1080 nM.

In the case of `CC12COCC(O1)n1c3ccccc3c3c4c(c5c(c31)C2c1ccccc1-5)C(=O)NC4` (stereo not drawn) [II-7b], the IC50 worked out at 568 nM.

Take `COc1ccc2c(c1)-c1c3c(c4c5ccccc5n5c4c1C2C1CCC5O1)CNC3=O` (stereo not drawn) [II-13]: the IC50 stood at 576 nM.

For the next assay, the target named is T4, PDGFβ receptor kinase domain (Homo sapiens, UniProt P09619).
T4 construct: baculovirus-expresses PDGFβ receptor kinase domain; made in house; host or cells: baculovirus expression system
T4 sequence (P09619 600-962 limits assumed): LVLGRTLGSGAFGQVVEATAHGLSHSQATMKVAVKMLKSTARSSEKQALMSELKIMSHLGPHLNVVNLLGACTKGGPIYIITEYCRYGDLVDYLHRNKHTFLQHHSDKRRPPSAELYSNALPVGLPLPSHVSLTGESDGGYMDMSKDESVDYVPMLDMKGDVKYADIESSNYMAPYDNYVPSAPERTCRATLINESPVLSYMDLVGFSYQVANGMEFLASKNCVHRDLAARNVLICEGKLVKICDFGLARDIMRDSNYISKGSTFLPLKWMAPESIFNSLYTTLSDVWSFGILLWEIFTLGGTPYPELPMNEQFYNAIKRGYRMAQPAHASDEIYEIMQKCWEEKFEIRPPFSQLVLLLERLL
As to the kind of experiment: Inhibition of PDGF receptor kinase activity (ELISA). The format is biochemical. The settings on record: 1 μM; values in parentheses. On the procedure: Bridged indenopyrrolocarbazole compounds were examined for their inhibitory effects on the kinase activity of baculovirus-expresses PDGFβ receptor kinase domain using the trkA kinase ELISA described above. Assays were performed in substrate (PLC-γ/GST)-coated 96-well microtiter plates. Each 100-μl reaction mixture contained 50 mM HEPES, pH 7.4, 20 μM ATP, 10 mM MnCl2, 0.1% BSA, 2% DMSO, and various concentrations of inhibitor. The reaction was initiated by addition of prephosphorylated recombinant human enzyme (10 ng/ml PDGFRβ) and allowed to proceed for 15 minutes at 37° C. The prephosphorylated enzyme was prepared prior to use by incubation of the kinase in buffer containing 20 μM ATP and 10 mM MnCl2 for 1 hour at 4° C. Detection of phosphorylated product was done by adding horseradish peroxidase (HRP)-conjugated anti-phosphotyrosine antibody (UBI). The HRP substrate solution containing 3, 3′-5, 5′-tetramethylbenzidine and hydrogen peroxide was later added and the plates were incubated for 10 minutes at room temperature. The reaction was quenched with acid and the resulting absorbance was read at 450 nm using a Microplate Bio-kinetics Reader (Bio-Tek Instrument EL 312e). Inhibition data were analyzed using the sigmoidal dose-response (variable slope) equation in GraphPad Prism.
Consider `CC12CCC(O1)n1c3ccccc3c3c4c(c5c(c31)C2c1ccccc1-5)C(=O)NC4` (stereo not drawn) [II-3], for which the “PDGFR % Inh. @ 1 μM” value is listed as “(28) %”.

On to `CC12CCCC(O1)n1c3ccccc3c3c4c(c5c(c31)C2c1ccccc1-5)C(=O)NC4` (single isomer, unassigned) [II-4b], for which the “PDGFR % Inh. @ 1 μM” value is recorded as “(17) %”.

Staying with this assay, now noted: 1 μM; values in parentheses; read-out: PDGFR % Inh. @ 1 μM.
On to `O=C1NCc2c3c4c5c(c21)c1ccccc1n5C1CCC(O1)C4c1ccccc1-3` (stereo not drawn) [II-8], for which the inhibition at 1 µM is 15%.

Consider `CC12COCC(O1)n1c3ccccc3c3c4c(c5c(c31)C2c1ccccc1-5)C(=O)NC4` (stereo not drawn) [II-7b], for which the inhibition at 1 µM came to 34%.

The same assay, now with this note: 20 μM ATP; read-out: PDGFR IC50.
For the compound `COc1ccc2c(c1)-c1c3c(c4c5ccccc5n5c4c1C2C1CCC5O1)CNC3=O` (stereo not drawn) [II-13], the IC50 worked out at 1230 nM.

`CC12CCC(O1)n1c3ccc(Br)cc3c3c4c(c5c(c31)C2c1ccccc1-5)C(=O)NC4` (stereo not drawn) [II-5]: the IC50 turned out to be 1080 nM.

One may read the IC50 as the concentration that inhibits the measured activity by half.
